What follows are molecules tested on HT-29 cells (assay: HT-29 necroptosis cell viability assay (TNF-α/SMAC mimetic/zVAD-FMK, CellTiter-Glo)). Conditions: Homo sapiens, HT-29, HT-29 cells, necroptosis induced by TNF-α/SMAC mimetic/zVAD-FMK, CellTiter-Glo; read-out: Activity (IC50 class).
Type: cell-based
In short: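 HT-29 cells (~5,000/well, overnight) in FBS-free McCoy's 5A with TNF-α 10 ng/ml, SMAC mimetic 6 μM and zVAD-FMK 10 μM plus 10-point 1:3 compound titration, 20 h at 37°C. ATP measured by CellTiter-Glo luminescence; IC50 as geometric mean of duplicates.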

SMILES	IC50 [nM]
Cc1nc(C(N)=O)sc1Oc1ncc(-n2nc3n(c2=O)[C@H](c2ccccc2)CC3)cc1Cl (single isomer, unassigned) [Example 640]	< 100

Same assay, conditions: Homo sapiens, HT-29, HT-29 necroptosis cell viability assay; class symbols for IC50; read-out: Activity

SMILES	IC50 [nM]
Cc1nc(N2CC(C)(C#N)C2)sc1Cc1ccc(-n2ncn(Cc3c(F)cccc3F)c2=O)cc1 [Example 512, 1-(5-(4-(4-(2,6-difluorobenzyl)-5-oxo-4,5-dihydro-1H-1,2,4-triazol-1-yl)benzyl)-4-methylthiazol-2-yl)-3-methylazetidine-3-carbonitrile]	< 100
CCOC(=O)c1ncn(Cc2ccc(-n3ncn(Cc4c(F)cccc4F)c3=O)cc2F)c1C [Example 196, ethyl 1-(4-(4-(2,6-difluorobenzyl)-5-oxo-4,5-dihydro-1H-1,2,4-triazol-1-yl)-2-fluorobenzyl)-5-methyl-1H-imidazole-4-carboxylate]	< 100
Cc1nc(N2CC(C)(NC(=O)OC(C)(C)C)C2)sc1C(=O)c1ccc(-n2ncn(Cc3c(F)cccc3F)c2=O)cc1 [Example 508, tert-butyl (1-(5-(4-(4-(2,6-difluorobenzyl)-5-oxo-4,5-dihydro-1H-1,2,4-triazol-1-yl)benzoyl)-4-methylthiazol-2-yl)-3-methylazetidin-3-yl)carbamate]	100 to 1000
Cc1nc(CN2CCCC2)sc1Oc1ccc(-n2ncn(Cc3c(F)cccc3F)c2=O)cc1F [Example 212, 4-(2,6-difluorobenzyl)-2-(3-fluoro-4-((4-methyl-2-(pyrrolidin-1-ylmethyl)thiazol-5-yl)oxy)phenyl)-2,4-dihydro-3H-1,2,4-triazol-3-one]	< 100
Cc1nc(CC(N)=O)c(Oc2ccc(-n3ncn(Cc4c(F)cccc4F)c3=O)cc2F)s1 [Example 138, 2-(5-(4-(4-(2,6-difluorobenzyl)-5-oxo-4,5-dihydro-1H-1,2,4-triazol-1-yl)-2-fluorophenoxy)-2-methylthiazol-4-yl)acetamide]	< 100
CC1(O)CN(c2nc(C(F)F)c(Oc3ccc(-n4ncn(Cc5c(F)cccc5F)c4=O)cc3F)s2)C1 [Example 144, 4-(2,6-difluorobenzyl)-2-(4-((4-(difluoromethyl)-2-(3-hydroxy-3-methylazetidin-1-yl)thiazol-5-yl)oxy)-3-fluorophenyl)-2,4-dihydro-3H-1,2,4-triazol-3-one]	< 100
N#Cc1cc(Oc2ccc(-n3ncn(Cc4c(F)cccc4F)c3=O)cc2)ncn1 [Example 630, 6-(4-(4-(2,6-difluorobenzyl)-5-oxo-4,5-dihydro-1H-1,2,4-triazol-1-yl)phenoxy)pyrimidine-4-carbonitrile]	1000 to 10000
Cn1cc(C#N)nc1Oc1ccc(-n2ncn(Cc3c(F)cccc3F)c2=O)cc1F [Example 121, 2-(4-(4-(2,6-difluorobenzyl)-5-oxo-4,5-dihydro-1H-1,2,4-triazol-1-yl)-2-fluorophenoxy)-1-methyl-1H-imidazole-4-carbonitrile]	100 to 1000
N#Cc1cccn(Cc2ccc(-n3ncn(Cc4c(F)cccc4F)c3=O)cc2)c1=O [Example 194, 1-(4-(4-(2,6-difluorobenzyl)-5-oxo-4,5-dihydro-1H-1,2,4-triazol-1-yl)benzyl)-2-oxo-1,2-dihydropyridine-3-carbonitrile]	1000 to 10000
CCOC1(C)CN(c2nccc(Oc3ccc(-n4ncn(Cc5c(F)cccc5F)c4=O)cc3Cl)c2Cl)C1 [Example 503, 2-(3-chloro-4-((3-chloro-2-(3-ethoxy-3-methylazetidin-1-yl)pyridin-4-yl)oxy)phenyl)-4-(2,6-difluorobenzyl)-2,4-dihydro-3H-1,2,4-triazol-3-one]	< 100
CCC(O)(CC)c1nc(C)c(Oc2ccc(-n3ncn(Cc4c(F)cccc4F)c3=O)cc2F)s1 [Example 581, 4-(2,6-difluorobenzyl)-2-(3-fluoro-4-((2-(3-hydroxypentan-3-yl)-4-methylthiazol-5-yl)oxy)phenyl)-2,4-dihydro-3H-1,2,4-triazol-3-one]	< 100
CCOC1(C)CN(c2cc(Oc3ccc(-n4ncn(Cc5c(F)cccc5F)c4=O)cc3Cl)c(F)cn2)C1 [Example 501, 2-(3-chloro-4-((2-(3-ethoxy-3-methylazetidin-1-yl)-5-fluoropyridin-4-yl)oxy)phenyl)-4-(2,6-difluorobenzyl)-2,4-dihydro-3H-1,2,4-triazol-3-one]	< 100

Same assay, conditions: Homo sapiens, HT-29, HT-29 necroptosis cell viability, IC50 class symbols; read-out: Activity

SMILES	IC50 [nM]
O=c1n(Cc2c(F)cccc2F)cnn1-c1ccc(Oc2ccnc(N3CCC4(CCOCC4)C3)c2)cc1 [Example 340, 2-(4-((2-(8-oxa-2-azaspiro[4.5]decan-2-yl)pyridin-4-yl)oxy)phenyl)-4-(2,6-difluorobenzyl)-2,4-dihydro-3H-1,2,4-triazol-3-one]	< 100
COc1cc(Oc2ccc(-n3ncn(Cc4c(F)cccc4F)c3=O)cc2)cc(OC)n1 [Example 436, 4-(2,6-difluorobenzyl)-2-(4-((2,6-dimethoxypyridin-4-yl)oxy)phenyl)-2,4-dihydro-3H-1,2,4-triazol-3-one]	100 to 1000
Cc1nc(C(N)C(F)F)sc1Oc1ccc(-n2ncn(Cc3c(F)cccc3F)c2=O)cc1F (stereo not drawn) [Example 447, 2-(4-((2-(1-amino-2,2-difluoroethyl)-4-methylthiazol-5-yl)oxy)-3-fluorophenyl)-4-(2,6-difluorobenzyl)-2,4-dihydro-3H-1,2,4-triazol-3-one]	< 100
C[C@H]1CCCN1c1cc(Oc2ccc(-n3ncn(Cc4c(F)cccc4F)c3=O)cc2F)c(F)cn1 [Example 297, (S)-4-(2,6-difluorobenzyl)-2-(3-fluoro-4-((5-fluoro-2-(2-methylpyrrolidin-1-yl)pyridin-4-yl)oxy)phenyl)-2,4-dihydro-3H-1,2,4-triazol-3-one]	< 100
O=c1n(Cc2c(F)ccc(F)c2F)cnn1-c1ccc(Oc2ccnc(N3CC4(CCOCC4)C3)c2)cc1 [Example 288, 2-(4-((2-(7-oxa-2-azaspiro[3.5]nonan-2-yl)pyridin-4-yl)oxy)phenyl)-4-(2,3,6-trifluorobenzyl)-2,4-dihydro-3H-1,2,4-triazol-3-one]	100 to 1000
CC(=O)c1nc(C)c(Oc2ccc(-n3ncn(Cc4c(F)cccc4F)c3=O)cc2F)s1 [Example 449, 2-(4-((2-acetyl-4-methylthiazol-5-yl)oxy)-3-fluorophenyl)-4-(2,6-difluorobenzyl)-2,4-dihydro-3H-1,2,4-triazol-3-one]	< 100
CC1(C#N)CN(c2cc(Oc3ccc(-n4ncn(Cc5c(F)cccc5F)c4=O)cc3)c(F)cn2)C1 [Example 323, 1-(4-(4-(4-(2,6-difluorobenzyl)-5-oxo-4,5-dihydro-1H-1,2,4-triazol-1-yl)phenoxy)-5-fluoropyridin-2-yl)-3-methylazetidine-3-carbonitrile]	100 to 1000
CN(c1cc(Oc2ccc(-n3ncn(Cc4c(F)cccc4F)c3=O)cc2)ccn1)C1CC(F)(F)C1 [Example 478, 4-(2,6-difluorobenzyl)-2-(4-((2-((3,3-difluorocyclobutyl)(methyl)amino)pyridin-4-yl)oxy)phenyl)-2,4-dihydro-3H-1,2,4-triazol-3-one]	100 to 1000
Cc1nc(N2CC(C)(N)C2)sc1Oc1ccc(-n2ncn(Cc3c(F)cccc3F)c2=O)cc1F [Example 451, 2-(4-((2-(3-amino-3-methylazetidin-1-yl)-4-methylthiazol-5-yl)oxy)-3-fluorophenyl)-4-(2,6-difluorobenzyl)-2,4-dihydro-3H-1,2,4-triazol-3-one]	< 100
CC(C)(C)OC1CN(c2nccc(Oc3ccc(-n4ncn(Cc5c(F)cccc5F)c4=O)cc3)c2F)C1 [Example 303, 2-(4-((2-(3-(tert-butoxy)azetidin-1-yl)-3-fluoropyridin-4-yl)oxy)phenyl)-4-(2,6-difluorobenzyl)-2,4-dihydro-3H-1,2,4-triazol-3-one]	< 100
C[C@H]1[C@@H](N(C)C)CN1c1cc(Oc2ccc(-n3ncn(Cc4c(F)cccc4F)c3=O)cc2F)c(Cl)cn1 [Example 426, 2-(4-((5-chloro-2-((2S,3S)-3-(dimethylamino)-2-methylazetidin-1-yl)pyridin-4-yl)oxy)-3-fluorophenyl)-4-(2,6-difluorobenzyl)-2,4-dihydro-3H-1,2,4-triazol-3-one]	< 100

Same assay, conditions: Homo sapiens; HT-29 cells stimulated with TNF-α (10 ng/ml), SMAC mimetic (6 μM) and zVAD-FMK (10 μM); 20 hours; CellTiter-Glo ATP luminescence; geometric mean IC50 from 10 points; read-out: Activity

SMILES	IC50 [nM]
O=c1n(Cc2c(F)cccc2F)cnn1-c1ccc(Oc2nc(CO)cs2)cc1 [Example 96, 4-(2,6-difluorobenzyl)-2-(4-((4-(hydroxymethyl)thiazol-2-yl)oxy)phenyl)-2,4-dihydro-3H-1,2,4-triazol-3-one]	100 to 1000
COC(=O)c1nc(C)c(Oc2ccc(-n3ncn(Cc4ccccc4F)c3=O)cc2F)s1 [Example 107, methyl 5-(2-fluoro-4-(4-(2-fluorobenzyl)-5-oxo-4,5-dihydro-1H-1,2,4-triazol-1-yl)phenoxy)-4-methylthiazole-2-carboxylate]	< 100
Cc1nc(C2CC(C#N)C2)sc1Oc1ccc(-n2ncn(Cc3c(F)cccc3F)c2=O)cc1F (stereo not drawn) [Example 40, 3-(5-(4-(4-(2,6-difluorobenzyl)-5-oxo-4,5-dihydro-1H-1,2,4-triazol-1-yl)-2-fluorophenoxy)-4-methylthiazol-2-yl)cyclobutane-1-carbonitrile]	< 100
NC(=O)c1nnc(Oc2ccc(-n3nc4n(c3=O)[C@H](c3ccccc3)CC4)cc2F)s1 (single isomer, unassigned) [Example 687]	< 100
Cc1nc(N2C[C@H](F)[C@@H]2C)sc1Oc1ccc(-n2ncn(Cc3c(F)cccc3F)c2=O)cc1 [Example 51, 4-(2,6-difluorobenzyl)-2-(4-((2-((2S,3S)-3-fluoro-2-methylazetidin-1-yl)-4-methylthiazol-5-yl)oxy)phenyl)-2,4-dihydro-3H-1,2,4-triazol-3-one]	< 100
Cc1nc(N)sc1Oc1ccc(-n2ncn(Cc3c(F)cccc3F)c2=O)cc1 [Example 91, 2-(4-((2-amino-4-methylthiazol-5-yl)oxy)phenyl)-4-(2,6-difluorobenzyl)-2,4-dihydro-3H-1,2,4-triazol-3-one]	< 100
